This note sets out measurements from patent US20250051277A1, “DELIVERY OF THERAPEUTIC ALKALOID COMPOUNDS” (Sensorium Therapeutics, Inc., priority 2021, published 2025).

Where two headings read alike, the source gives them in different places.

The format of data set [1] is physicochemical. As to conditions: SGF with pepsin, pH 1.5, 37° C., 0.5 mM.
Data set [2] is described as follows: Plasma Stability Assay of Example A3, mouse plasma. The following applies: 5 μM, 37° C., % of prodrug compound remaining.
The conditions of data set [3]: 5 μM.
The format of data set [4] is physicochemical. The following applies: DI water, 25° C., 0.5 mM.
A short description of data set [5]: Plasma Stability Assay of Example A3, human plasma. As to conditions: 5 μM, 37° C., % of prodrug compound remaining.
The conditions of data set [6]: 10 μM.
Description: 50 μL aliquots of positive controls and test compounds spiked into rat or human plasma (n=2) were added to a pre-warmed plate (37° C.) and shaken at 50 rpm. At each respective time point, the reaction was stopped by adding 500 μL of acetonitrile containing internal standards (100 nM aprozolam, 200 nM caffeine, 100 nM tolbutamide). All samples were vortexed for 10 minutes, followed by centrifugation at 3,220 g for 30 minutes to precipitate proteins. 100 μL of the supernatant is transferred to a new plate. The supernatant will be diluted with ultrapure water according to the LC-MS signal response and peak shape.
For data set [7] the following is noted: 10 μM. The source holds these as a separate data set.
The conditions of data set [8]: 5 μM. This is another data set of the same source.
Data set [9] is described as follows: Hydrolysis Assay of Example A1 (conversion by LCMS). Format: physicochemical. The following applies: for Conversion (%): pH = 2.0, 37° C., 0.5 mM, 0.01M HCl. As for the experimental part:
The hydrolysis kinetics was under a certain temperature and measured by LCMS at a certain time interval. The corresponding LCMS chromatograms were recorded and the conversions were calculated. The hydrolysis conditions and the data were summarized in below table. LCMS spectra were obtained using Agilent 1200/G1956A or SHIMADZU LCMS-2020. Standard LCMS conditions were as follows (running time 1.55 minutes): • Acidic condition: Mobile Phase A: 0.0375% TFA in water (v/v). Mobile Phase B: 0.01875% TFA in acetonitrile (v/v); Column: Kinetex EVO C18 30*2.1 mm, 5 μm. • Basic condition: Mobile Phase A: 0.025% NH3·H2O in water (v/v). Mobile Phase B: Acetonitrile; Column: Kinetex EVO C18 2.1×30 mm, 5 μm. • Conversion (%)=peak area 1/(peak area 1+peak area 2)*100%, peak area 1 is the integration of hydrolyzed product, peak area 2 is the integration of starting material.

As to `COc1ccc([C@@]23CCC(OC(=O)c4ccc(N(C)C)cc4)=C[C@@H]2N(C)CC3)cc1OC` [Compound 355, [(3aS,7aS)-3a-(3,4-dimethoxyphenyl)-1-methyl-3,4,5,7a-tetrahydro-2H-indol-6-yl]4-(dimethylamino)benzoate], the “Condition 1 Conversion (%)” value in data set [1] (time 1 min), in data set [1] (time 5 min), in [1] (time 30 min), in [1] (time 1 h), in [1] (time 4 h) and in data set [1] (time 24 h) was 0% throughout. Also, the “Mouse Plasma Prodrug (%)” value in [2] (0 min) worked out at 100.0%; in data set [2] (15 min) it was 50.6%; in [2] (30 min), 30.8%; in [2] (60 min) it was 9.9%; in data set [2] (120 min) it was 0.5%; in data set [2] (240 min), 0.0%. Moreover, the “Human Plasma Compound 001 (%)” value in data set [3] (0 min) was 0.0%. The “Condition 2 Conversion (%)” value in data set [4] (time 1 min), in [4] (time 5 min), in data set [4] (time 30 min), in data set [4] (time 1 h), in data set [4] (time 4 h) and in [4] (time 24 h) was 0% throughout. In addition, the “Human Plasma Prodrug (%)” value in data set [5] (0 min) is on record as 100.0%; in data set [5] (15 min), over 99%; in [5] (30 min), over 99%; in data set [5] (60 min), over 99%; in data set [5] (120 min), over 99%; in data set [5] (240 min), 93.2%.

`COc1ccc([C@@]23CCC(OC(=O)c4cccc(C)c4)=C[C@@H]2N(C)CC3)cc1OC` [Compound 374, (3aS,7aS)-3a-(3,4-dimethoxyphenyl)-1-methyl-2,3,3a,4,5,7a-hexahydro-1H-indol-6-yl3-methylbenzoate]: the “Mouse Plasma Prodrug (%)” value worked out at 100% in data set [2] (0 min); 33% in [2] (15 min); 4% in data set [2] (30 min); 0% in data set [2] (60 min); 0% in data set [2] (120 min); 0% in data set [2] (240 min). Moreover, the “Human Plasma Compound 001 (%)” value in [3] (0 min) is 0.00%; in data set [3] (30 min), 3.19%; in data set [3] (60 min), 5.92%; in [3] (120 min), 9.01%; in [3] (240 min), 7.54%. The “Prodrug (%) remaining, Rat Plasma” value in data set [6] (0 h) is 100.0%; in [6] (10 min), 9.7%; in data set [6] (0.5 h), 0.3%; in [6] (1 h), 0.1%; in data set [6] (2 h), 0.0%; in data set [6] (4 h), 0.0%. Moreover, the “Prodrug (%) remaining, Human Plasma” value in data set [7] (0 h) is on record as 100.0%; in data set [7] (10 min), over 99%; in data set [7] (0.5 h), over 99%; in [7] (1 h), over 99%; in data set [7] (2 h), over 99%; in data set [7] (4 h) it was 95.4%. The “Human Plasma Prodrug (%)” value in data set [5] (0 min) was 100%; in [5] (15 min) it was 98%; in [5] (30 min), 88%; in [5] (60 min), 84%; in data set [5] (120 min), 62%; in data set [5] (240 min) it was 11%.

`COc1ccc([C@@]23CCC(OC(=O)c4ccccc4C)=C[C@@H]2N(C)CC3)cc1OC` [Compound 298, [(3aS,7aS)-3a-(3,4-dimethoxyphenyl)-1-methyl-3,4,5,7a-tetrahydro-2H-indol-6-yl]2-methylbenzoate]: the “Condition 1 Conversion (%)” value in data set [1] (time 1 min), in data set [1] (time 5 min), in data set [1] (time 30 min), in data set [1] (time 1 h), in data set [1] (time 4 h) and in [1] (time 24 h) was 0% throughout. Further, the “Human Plasma Prodrug (%)” value is 100.0% in data set [3] (0 min), over 99% in data set [3] (15 min), 97.5% in data set [3] (60 min) and 90.9% in data set [3] (240 min). Besides, the “Condition 2 Conversion (%)” value in [4] (time 1 min), in data set [4] (time 5 min), in data set [4] (time 30 min), in data set [4] (time 1 h), in data set [4] (time 4 h) and in [4] (time 24 h) was 0% in each case. Further, the “Mouse Plasma Compound 001 (%)” value is recorded as 34.0% in [8] (15 min); 44.5% in data set [8] (30 min); 60.1% in data set [8] (60 min); 64.3% in data set [8] (120 min); 64.8% in data set [8] (240 min).

As to `COc1ccc([C@@]23CCC(OC(=O)c4cccc(C)c4C)=C[C@@H]2N(C)CC3)cc1OC` [Compound 373, (3aS,7aS)-3a-(3,4-dimethoxyphenyl)-1-methyl-2,3,3a,4,5,7a-hexahydro-1H-indol-6-yl2,3-dimethylbenzoate], the “Mouse Plasma Prodrug (%)” value was 100% in data set [2] (0 min); 82% in data set [2] (15 min); 64% in [2] (30 min); 41% in data set [2] (60 min); 12% in data set [2] (120 min); 1% in data set [2] (240 min). The “Human Plasma Compound 001 (%)” value in data set [3] (0 min) is recorded as 0%. Besides, the “Prodrug (%) remaining, Rat Plasma” value in [6] (0 h) is listed as 100.0%; in [6] (10 min), 81.0%; in data set [6] (0.5 h), 58.4%; in [6] (1 h), 26.8%; in data set [6] (2 h) it was 5.2%; in data set [6] (4 h) it was 1.3%. For the same molecule, the “Prodrug (%) remaining, Human Plasma” value in [7] (0 h) is on record as 100.0%; in data set [7] (10 min), 96.3%; in data set [7] (0.5 h), over 99%; in [7] (1 h), 94.8%; in data set [7] (2 h) it was 89.9%; in data set [7] (4 h), 96.3%. In addition, the “Human Plasma Prodrug (%)” value in data set [5] (0 min) is given as 100%; in data set [5] (15 min) it was 93.9%; in data set [5] (30 min) it was 96.5%; in data set [5] (60 min) it was 81.4%; in data set [5] (120 min) it was 66.1%; in data set [5] (240 min) it was 17.2%.

Regarding `COc1ccc([C@@]23CCC(=NO)C[C@@H]2N(C)CC3)cc1OC` (mixture of isomers) [Compound 037], the “Condition 1 Conversion (%)” value in [1] (time 1 min) came out at 0%; in data set [1] (time 5 min) it was 0%; in data set [1] (time 30 min), 82.3%; in data set [1] (time 1 h), 89%; in [1] (time 4 h), 89.2%; in [1] (time 24 h), 89.5%. In [9] (acidic pH 2.0, temperatures of 25 or 37° C.), the “conversion to mesembrine in the Hydrolysis Assay” value is reported as “converted to mesembrine”. The figures for the “Conversion (%)” value in data set [9] (10 min), in data set [9] (60 min) and in data set [9] (90 min) were 59%, 84% and 87%, respectively.
